Target: γ-secretase (Homo sapiens (Human), UniProt P49768)
Assay: γ-secretase membrane assay with Aβ40 ECL immunoassay
Type: biochemical
Details: membranes of 293 cells expressing C99 (SPC99-lon), 37° C. for 1 h, Aβ 40 by ECL immunoassay
Experimental: Gamma-secretase activity was determined as described by Zhang et al. (Biochemistry, 40 (16), 5049-5055, 2001), which is herein incorporated by reference. Activity is expressed either as a percent inhibition or as the concentration of compound producing 50% inhibition of enzyme activity.
The construct SPC99-Ion, which contains the first 18 residues and the C-terminal 99 amino acids of APP carrying the London mutation, has been described (Zhang, L., Song, L., and Parker, E. (1999) J. Biol. Chem. 274, 8966-8972). Upon insertion into the membrane, the 17 amino acid signal peptide is processed, leaving an additional leucine at the N-terminus of Aβ. SPC99-lon was cloned into the pcDNA4/TO vector (Invitrogen) and transfected into 293 cells stably transfected with pcDNA6/TR, which is provided in the T-REx system (Invitrogen). The transfected cells were selected in Dulbecco's modified Eagle's media (DMEM) supplemented with 10% fetal bovine serum, 100 units/mL penicillin, 100 µg/mL streptomycin, 250 µg/mL zeocin, and 5 µg/mL blasticidin (Invitrogen). Colonies were screened for Aβ production by inducing C99 expression with […] tetracycline for 16-20 h and analyzing conditioned media with a sandwich immunoassay (see below). One of the clones, designated as pTRE.15, was used in these studies.
C99 expression in cells was induced with […] tetracycline for 20 h. The cells were pretreated with […] 12-myristate 13-acetate (PMA) and […] brefeldin A (BFA) for 5-6 h at 37 C before harvesting. The cells were washed 3 times with cold phosphate-buffered saline (PBS) and harvested in buffer A containing 20 mM Hepes (pH 7.5), 250 mM sucrose, 50 mM KCl, 2 mM EDTA, 2 mM EGTA, and Complete protease inhibitor tablets (Roche Molecular Biochemicals). The cell pellets were flash-frozen in liquid nitrogen and stored at −70° C. before use.
To make membranes, the cells were resuspended in buffer A and lysed in a nitrogen bomb at 600 psi. The cell lysate was centrifuged at 1500 g for 10 min to remove nuclei and large cell debris. The supernatant was centrifuged at 100000 g for 1 h. The membrane pellet was resuspended in buffer A plus 0.5 M NaCl, and the membranes were collected by centrifugation at 200000 g for 1 h. The salt-washed membrane pellet was washed again in buffer A and centrifuged at 100000 g for 1 h. The final membrane pellet was resuspended in a small volume of buffer A using a Teflon-glass homogenizer. The protein concentration was determined, and membrane aliquots were flash-frozen in liquid nitrogen and stored at −70° C.
To measure γ-secretase activity, membranes were incubated at 37° C. for 1 h in 50 μL of buffer containing 20 mM Hepes (pH 7.0) and 2 mM EDTA. At the end of the incubation, Aβ 40 and Aβ 42 were measured using an electrochemiluminescence (ECL)-based immunoassay. Aβ 40 was identified with antibody pairs TAG-G2-10 and biotin-W02, while Aβ 42 was identified with TAG-G2-11 and biotin-4G8. The ECL signal was measured using an ECL-M8 instrument (IGEN International, Inc.) according to the manufacturer's instructions. The data presented were the means of the duplicate or triplicate measurements in each experiment. The characteristics of γ-secretase activity described were confirmed using more than five independent membrane preparations.

| SMILES | IC50 |
| --- | --- |
| O=S(=O)(CC[C@@H]1OCC[C@@]2(S(=O)(=O)c3ccc(Cl)cc3)c3c(F)ccc(F)c3OC[C@@H]12)Cc1ncon1 [Compound 11] | 1.7 nM |
| O=c1ccc(S(=O)(=O)CC[C@@H]2OCC[C@@]3(S(=O)(=O)c4ccc(Cl)cc4)c4c(F)ccc(F)c4OC[C@@H]23)c[nH]1 [Compound 25a] | 18.7 nM |
| O=S(=O)(CC[C@@H]1OCC[C@@]2(S(=O)(=O)c3ccc(Cl)cc3)c3c(F)ccc(F)c3OC[C@@H]12)c1ccnnc1 [Compound 25d] | 10.2 nM |
| O=S(=O)(CC[C@@H]1OCC[C@@]2(S(=O)(=O)c3ccc(Cl)cc3)c3c(F)ccc(F)c3OC[C@@H]12)c1ccncn1 [Compound 25f] | 2.9 nM |
| O=S(=O)(CC[C@@H]1OCC[C@@]2(S(=O)(=O)c3ccc(Cl)cc3)c3c(F)ccc(F)c3OC[C@@H]12)c1cncnc1 [Compound 25g] | 12.9 nM |
| COc1ccc(S(=O)(=O)CC[C@@H]2OCC[C@@]3(S(=O)(=O)c4ccc(Cl)cc4)c4c(F)ccc(F)c4OC[C@@H]23)cn1 [Compound 25h] | 16.5 nM |
| Nc1ncccc1S(=O)(=O)CC[C@@H]1OCC[C@@]2(S(=O)(=O)c3ccc(Cl)cc3)c3c(F)ccc(F)c3OC[C@@H]12 [Compound 27b] | 18 nM |

Further molecules by falling IC50, results first:

| IC50 | SMILES |
| --- | --- |
| 6.6 nM | O=S(=O)(CC[C@@H]1OCC[C@@]2(S(=O)(=O)c3ccc(Cl)cc3)c3c(F)ccc(F)c3OC[C@@H]12)Cc1cccnc1 [Compound 8b] |
| 6.4 nM | O=S(=O)(CC[C@@H]1OCC[C@@]2(S(=O)(=O)c3ccc(Cl)cc3)c3c(F)ccc(F)c3OC[C@@H]12)c1ncccn1 [Compound 25e] |
| 5.8 nM | Cc1nc(CS(=O)(=O)CC[C@@H]2OCC[C@@]3(S(=O)(=O)c4ccc(Cl)cc4)c4c(F)ccc(F)c4OC[C@@H]23)no1 [Compound 14] |
| 5.5 nM | O=S(=O)(CC[C@@H]1OCC[C@@]2(S(=O)(=O)c3ccc(Cl)cc3)c3c(F)ccc(F)c3OC[C@@H]12)c1cnccn1 [Compound 25c] |
| 4.5 nM | O=S(=O)(CC[C@@H]1OCC[C@@]2(S(=O)(=O)c3ccc(Cl)cc3)c3c(F)ccc(F)c3OC[C@@H]12)c1cccnn1 [Compound 25b] |
| 2.8 nM | O=c1[nH]cccc1S(=O)(=O)CC[C@@H]1OCC[C@@]2(S(=O)(=O)c3ccc(Cl)cc3)c3c(F)ccc(F)c3OC[C@@H]12 [Compound 27a] |
| 1.9 nM | O=S(=O)(CC[C@@H]1OCC[C@@]2(S(=O)(=O)c3ccc(Cl)cc3)c3c(F)ccc(F)c3OC[C@@H]12)Cc1ccccn1 [Compound 8a] |
| 1.4 nM | O=S(=O)(CC[C@@H]1OCC[C@@]2(S(=O)(=O)c3ccc(Cl)cc3)c3c(F)ccc(F)c3OC[C@@H]12)CCn1cccn1 [Compound 4] |

Reference: US9226927B2, “Gamma secretase inhibitors” (MERCK SHARP & DOHME CORP., priority 2011, dated 2016)
